In US4374841A, “Pyridoxine derivatives, and use in therapeutics” (S. A. Labaz N.V., priority 1980, dated 1983):
Where a name gives a salt, the structure may show the parent alone. Read-outs that look alike come from different tables or passages of the source.

Tests used:
[1] = test system: α-receptors; assay: Antiadrenergic properties: anti-α effect (reduction of epinephrine-increased blood-pressure); type: in vivo, dog; details: intravenous; for Anti-α effect: anaesthetized atropinized dog, epinephrine
Experimental: (§1) The purpose of this test was to determine the capacity of the compounds under study to reduce epinephrine-increased blood-pressure (anti-α effect) and epinephrine-accelerated heart-rate (anti-β effect) in the dog previously anaesthetized with pentobarbital (30 mg/kg) and atropinized (1 mg/kg).
After that, the dose of epinephrine so determined was administered followed by a dose, by intravenous route, of the compound to be studied. The percentage of reduction of hypertension produced by the compound under study in comparison with the hypertension previously obtained (about 100 mm.Hg) was then registered.
(§2) In both cases, the results were expressed as follows: […]
(§3) + for a <50%-reduction of the increase in pressure or cardiac frequency
(§4) ++ for a ≥50-reduction of the increase in pressure or cardiac frequency
(§5) +++ for the almost complete supression of the increase in pressure or cardiac frequency.

[2] = test system: β-receptors; assay: Antiadrenergic properties: anti-β effect (reduction of epinephrine-accelerated heart-rate); type: in vivo; details: intravenous, anaesthetized atropinized dog
Experimental: as §1
The percentage of reduction of the epinephrine-induced acceleration of heart-rate obtained by means of the compounds under study in comparison with the tachycardia previously measured (about 70 beats) was then registered.
as §2, §3, §4, §5

[3] = test system: mice; assay: Central depressant properties (passage of mice through a light ray); type: in vivo; details: intragastric, 30 minutes after administration, recorded over 15 minutes, dose with depressant action in 50% of the animals; for ED50: Mus musculus, po, 0.5 h, read-out: AD50 (the source's name)
Experimental: D. Central depressant properties
Thirty minutes after the intragastric administration of a dose of the compound to be studied, batches of mice were placed in a container through which a ray of light was projected. By means of a photoelectric cell, a record was made of the number of animals passing through the light ray over a period of 15 minutes. The same test was performed with control animals.
The AD50 was then calculated i.e. the dose of the compound under study which provoked a depressant action in 50% of the animals.

[4] = test system: anaesthetized dog; assay: Hypotension in the anaesthetized dog; type: in vivo; details: intravenous
Experimental: (a) Hypotension in the anaesthetized dog
The hypotensive effect was determined for at least one hour after the intravenous injection of a dose of the compound under study in the dog previously anaesthetized with pentobarbital (30 mg/kg) and atropinized (1 mg/kg).
Arterial pression was registered on a femoral artery.
The results were expressed as follows: […]
++ for a lasting reduction of about 30% in arterial pressure
+ for a short-lived reduction of about 20% in arterial pressure.

[5] = test system: anaesthetized dog; assay: Reserpine-like properties (cardiac frequency and contractility of the myocardium); type: in vivo; details: Canis lupus familiaris, 1 mg/kg, intravenous, anaesthetized dog
Text: C. Reserpine-like properties
the increase in cardiac frequency
the increase of (dP/dt) at its maximum, i.e. the increase of the maximum of the derivative of the left ventricular pressure in relation to time.
This derivative thus represented an index of contractility.

[6] = (dP/dt) maximum, read-out: increase in the contractility of the myocardium
[7] = read-out: increase in cardiac frequency

4,5-Dihydroxymethyl-3-(2-hydroxy-3-phenoxyethylamino-propoxy)-2-methyl-pyridine [C]
Anti-α effect ([1]; 10 mg/kg): +++ | Anti-β effect ([2]; 10 mg/kg): + (for a <50%-reduction of the increase in pressure or cardiac frequency)

4,5-Dihydroxymethyl-3-[2-hydroxy-3-(2-methoxy-phenoxyethylamino)-propoxy]-2-methyl-pyridine
Anti-α effect ([1]; 10 mg/kg): ++ (for a ≥50-reduction of the increase in pressure or cardiac frequency) | Anti-β effect ([2]; 10 mg/kg): + (for a <50%-reduction of the increase in pressure or cardiac frequency) | AD50 [3]: 33 mg/kg

4,5-Dihydroxymethyl-3-[2-hydroxy-3-(2-phenoxy-2-methyl-ethylamino)-propoxy]-2-methyl-pyridine [J]
Anti-α effect ([1]; 10 mg/kg): +++ | AD50 [3]: 47 mg/kg

4,5-Dihydroxymethyl-3-[2-hydroxy-3-(2-phenyl-1-methyl-ethylamino)-propoxy]- 2-methyl-pyridine [B]
Decrease in arterial pressure ([4]; 3.5 mg/kg): + (for a short-lived reduction of about 20% in arterial pressure) | Anti-α effect ([1]; 3.5 mg/kg): +++ | Anti-β effect ([2]; 3.5 mg/kg): +++

4,5-Dihydroxymethyl-3-[2-hydroxy-3-(3,5-dimethyl-phenoxyethylamino)-propoxy]-2-methyl-pyridine
Anti-α effect ([1]; 10 mg/kg): ++ (for a ≥50-reduction of the increase in pressure or cardiac frequency) | Anti-β effect ([2]; 10 mg/kg): ++ (for a ≥50-reduction of the increase in pressure or cardiac frequency)

4,5-Dihydroxymethyl-3-[2-hydroxy-3-(3-methyl-phenoxyethylamino)-propoxy]-2- methyl-pyridine
Decrease in arterial pressure ([4]; 10 mg/kg): + (for a short-lived reduction of about 20% in arterial pressure) | Anti-α effect ([1]; 7.5 mg/kg): +++ | Anti-β effect ([2]; 7.5 mg/kg): + (for a <50%-reduction of the increase in pressure or cardiac frequency)

4,5-Dihydroxymethyl-3-[3-(2,6-dimethyl-phenoxyethylamino)-2-hydroxy-propoxy]-2-methyl-pyridine [G]
Decrease in arterial pressure ([4]; 2 mg/kg): ++ (for a lasting reduction of about 30% in arterial pressure) | Anti-α effect ([1]; 2 mg/kg): +++ | Anti-β effect ([2]; 2 mg/kg): + (for a <50%-reduction of the increase in pressure or cardiac frequency)

4,5-Dihydroxymethyl-3-[3-(2-ethyl-phenoxyethylamino)-2-hydroxy-propoxy]-2-methyl-pyridine [F]
Decrease in arterial pressure ([4]; 10 mg/kg): + (for a short-lived reduction of about 20% in arterial pressure) | Anti-α effect ([1]; 10 mg/kg): +++ | Anti-β effect ([2]; 10 mg/kg): ++ (for a ≥50-reduction of the increase in pressure or cardiac frequency)

4,5-Dihydroxymethyl-3-{2-hydroxy-3-[(3-phenyl-1-methyl-1-propyl)-amino]-propoxy}-2-methyl-pyridine
Anti-α effect ([1]; 10 mg/kg): +++ | Anti-β effect ([2]; 10 mg/kg): ++ (for a ≥50-reduction of the increase in pressure or cardiac frequency)

Cc1ccc(OCCNCC(O)COc2c(C)ncc(CO)c2CO)cc1 (stereo not drawn) [Compound M, 4,5-Dihydroxymethyl-3-[2-hydroxy-3-(4-methyl-phenoxyethylamino)-propoxy]-2-methyl-pyridine]
Anti-α effect ([1]; 10 mg/kg): ++ (for a ≥50-reduction of the increase in pressure or cardiac frequency) | Anti-β effect ([2]; 10 mg/kg): 0 | change in vivo at 1 mg/kg [5, 6]: 10 to 30% | change in vivo at 1 mg/kg [5, 7]: 10 to 30%

COc1ccccc1OCCNCC(O)COc1c(C)ncc(CO)c1CO (stereo not drawn) [Compound U, 4,5-dihydroxymethyl-3-[2-hydroxy-3-(2-methoxy-phenoxyethylamino)-propoxy]-2-methyl-pyridine]
Anti-α effect ([1]; 10 mg/kg): +++ | prolonged α-antiadrenergic activity at a dose as low as ([1]; lowest active dose, dog, dihydrochloride): 0.5 mg/kg | Anti-β effect ([2]; 10 mg/kg): ++ (for a ≥50-reduction of the increase in pressure or cardiac frequency)

Cc1ccc(C(C)C)c(OCCNCC(O)COc2c(C)ncc(CO)c2CO)c1 (stereo not drawn) [L, 4,5-Dihydroxymethyl-3-[2-hydroxy-3-(2-isopropyl-5-methyl-phenoxyethylamino)-propoxy]-2-methyl-pyridine]
Anti-α effect ([1]; 10 mg/kg): +++ | Anti-β effect ([2]; 10 mg/kg): ++ (for a ≥50-reduction of the increase in pressure or cardiac frequency) | change in vivo at 1 mg/kg [5, 6]: 10 to 30% | change in vivo at 1 mg/kg [5, 7]: 10 to 30% | ED50 [3]: 40 mg/kg

CCCc1ccccc1OCCNCC(O)COc1c(C)ncc(CO)c1CO (stereo not drawn) [N, 4,5-Dihydroxymethyl-3-[2-hydroxy-3-(2-n-propyl-phenoxyethylamino)-propoxy]-2-methyl-pyridine]
Anti-α effect ([1]; 7 mg/kg): +++ | Anti-β effect ([2]; 7 mg/kg): ++ (for a ≥50-reduction of the increase in pressure or cardiac frequency) | ED50 [3]: 42 mg/kg

Cc1ncc(CO)c(CO)c1OCC(O)CNCCOc1ccccc1C(C)C (stereo not drawn) [P, 4,5-Dihydroxymethyl-3-[2-hydroxy-3-(2-isopropyl-phenoxyethylamino)-propoxy]-2-methyl-pyridine]
Anti-α effect ([1]; 2 mg/kg): +++ | Anti-β effect ([2]; 2 mg/kg): ++ (for a ≥50-reduction of the increase in pressure or cardiac frequency) | change in vivo at 1 mg/kg [5, 6]: 10 to 30% | change in vivo at 1 mg/kg [5, 7]: 10 to 30% | ED50 [3]: 42 mg/kg

CNC(=O)OCc1cnc(C)c(OCC(O)CNCCOc2ccccc2C)c1COC(=O)NC (stereo not drawn) [Q, 4,5-Di-(N-methylcarbamoyloxymethyl)-3-[2-hydroxy-3-(2-methyl-phenoxyethylamino)-propoxy]-2-methyl-pyridine]
Anti-α effect ([1]; 10 mg/kg): +++ | Anti-β effect ([2]; 10 mg/kg): 0

CNC(=O)OCc1cnc(C)c(OCC(O)CNCCOc2ccccc2)c1COC(=O)NC (stereo not drawn) [R, 4,5-Di-(N-methylcarbamoyloxymethyl)-3-(2-hydroxy-3-phenoxyethylamino-propoxy)-2-methyl-pyridine]
Anti-α effect ([1]; 10 mg/kg): ++ (for a ≥50-reduction of the increase in pressure or cardiac frequency) | Anti-β effect ([2]; 10 mg/kg): 0

Cc1ncc(CO)c(CO)c1OCC(O)CNCCOc1ccccc1C(C)C (stereo not drawn) [S, 4,5-Dihydroxymethyl-3-[2-hydroxy-3-(2-isopropyl-phenoxyethylamino)-propoxy]-2-methyl-pyridine]
Anti-α effect ([1]; 10 mg/kg): +++ | Anti-β effect ([2]; 10 mg/kg): ++ (for a ≥50-reduction of the increase in pressure or cardiac frequency)

Cc1ccc(OCCCNCC(O)COc2c(C)ncc(CO)c2CO)cc1C (stereo not drawn) [T, 4,5-Dihydroxymethyl-3-[2-hydroxy-3-(3,4-dimethyl-phenoxypropylamino)-propoxy]-2-methyl-pyridine]
Anti-α effect ([1]; 10 mg/kg): ++ (for a ≥50-reduction of the increase in pressure or cardiac frequency) | Anti-β effect ([2]; 10 mg/kg): ++ (for a ≥50-reduction of the increase in pressure or cardiac frequency)

Cc1ncc(CO)c(CO)c1OCC(O)CNCCOc1ccc(Cl)cc1 (stereo not drawn) [W, 4,5-Dihydroxymethyl-3-[2-hydroxy-3-(4-chloro-phenoxyethylamino)-propoxy]-2-methyl-pyridine]
Anti-α effect ([1]; 10 mg/kg): ++ (for a ≥50-reduction of the increase in pressure or cardiac frequency) | Anti-β effect ([2]; 10 mg/kg): + (for a <50%-reduction of the increase in pressure or cardiac frequency)

COc1ccc(CCNCC(O)COc2c(C)ncc(CO)c2CO)cc1OC.O=C(O)C(=O)O.O=C(O)C(=O)O (stereo not drawn) [X, 4,5-Dihydroxymethyl-3-[3-(3,4-dimethoxy-phenethylamino)-2-hydroxy-propoxy]-2-methyl-pyridine dioxalate]
Decrease in arterial pressure ([4]; 10 mg/kg): + (for a short-lived reduction of about 20% in arterial pressure)

Cc1ncc(CO)c(CO)c1OCC(O)CNCCc1ccccc1 (stereo not drawn) [Z, 4,5-Dihydroxymethyl-3-(2-hydroxy-3-phenylethyl-amino-propoxy)-2-methyl-pyridine oxalate]
change in vivo at 1 mg/kg [5, 6]: 10 to 30% | change in vivo at 1 mg/kg [5, 7]: 10 to 30% | ED50 [3]: 33 mg/kg
